Common to all, as to assay type: cell-based
In one assay the target is T1, human TLR8 (Homo sapiens, UniProt Q9NR97).
T1 construct: host or cells: HEK-Blue cells
T1 sequence (Q9NR97 27-1041): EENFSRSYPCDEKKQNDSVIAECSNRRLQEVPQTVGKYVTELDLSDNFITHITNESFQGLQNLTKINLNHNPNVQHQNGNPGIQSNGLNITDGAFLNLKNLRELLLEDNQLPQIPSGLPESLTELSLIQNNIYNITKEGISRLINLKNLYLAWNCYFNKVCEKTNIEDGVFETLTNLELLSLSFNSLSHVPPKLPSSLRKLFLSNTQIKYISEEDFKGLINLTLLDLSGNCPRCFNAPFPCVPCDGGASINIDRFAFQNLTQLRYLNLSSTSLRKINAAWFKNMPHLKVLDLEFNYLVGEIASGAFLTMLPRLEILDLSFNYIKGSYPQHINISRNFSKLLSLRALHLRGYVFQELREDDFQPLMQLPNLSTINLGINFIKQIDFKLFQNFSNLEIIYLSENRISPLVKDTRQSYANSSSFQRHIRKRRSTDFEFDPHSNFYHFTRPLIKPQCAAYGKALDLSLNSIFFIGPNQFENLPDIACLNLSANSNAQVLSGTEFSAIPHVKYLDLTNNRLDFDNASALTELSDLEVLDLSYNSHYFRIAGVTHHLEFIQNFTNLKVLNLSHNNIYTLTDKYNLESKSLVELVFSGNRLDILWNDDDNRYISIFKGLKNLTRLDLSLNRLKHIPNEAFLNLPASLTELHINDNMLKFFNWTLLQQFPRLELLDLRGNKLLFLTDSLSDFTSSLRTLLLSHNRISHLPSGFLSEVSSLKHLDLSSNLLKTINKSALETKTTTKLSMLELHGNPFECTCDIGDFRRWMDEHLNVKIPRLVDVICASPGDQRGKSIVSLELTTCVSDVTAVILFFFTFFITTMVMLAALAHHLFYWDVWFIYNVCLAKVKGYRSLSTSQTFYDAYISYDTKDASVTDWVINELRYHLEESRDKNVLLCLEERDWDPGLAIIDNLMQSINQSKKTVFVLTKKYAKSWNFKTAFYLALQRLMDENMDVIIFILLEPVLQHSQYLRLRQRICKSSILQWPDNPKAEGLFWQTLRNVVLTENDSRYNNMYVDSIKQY
The assay can be described thus: TLR8 inhibition reporter assay (HEK-Blue cells, SEAP reporter, R848 stimulation). The following applies: HEK-Blue cells overexpressing human TLR8, SEAP reporter, R848 15.9 μM. An outline of the steps:
(§1)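 SEAP readout after 22 h agonist exposure at 37 °C; final agonist levels were 7.5 μM gardiquimod (TLR7), 15.9 μM R848 (TLR8) and 5 nM ODN2006 (TLR9). Inhibitors, spanning 0.05 nM to 50 μM final, were applied 30 min beforehand.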

Another assay has as its target T2, human TLR9 (Homo sapiens, UniProt Q9NR96).
T2 construct: host or cells: HEK-Blue cells
T2 sequence (Q9NR96 26-1032): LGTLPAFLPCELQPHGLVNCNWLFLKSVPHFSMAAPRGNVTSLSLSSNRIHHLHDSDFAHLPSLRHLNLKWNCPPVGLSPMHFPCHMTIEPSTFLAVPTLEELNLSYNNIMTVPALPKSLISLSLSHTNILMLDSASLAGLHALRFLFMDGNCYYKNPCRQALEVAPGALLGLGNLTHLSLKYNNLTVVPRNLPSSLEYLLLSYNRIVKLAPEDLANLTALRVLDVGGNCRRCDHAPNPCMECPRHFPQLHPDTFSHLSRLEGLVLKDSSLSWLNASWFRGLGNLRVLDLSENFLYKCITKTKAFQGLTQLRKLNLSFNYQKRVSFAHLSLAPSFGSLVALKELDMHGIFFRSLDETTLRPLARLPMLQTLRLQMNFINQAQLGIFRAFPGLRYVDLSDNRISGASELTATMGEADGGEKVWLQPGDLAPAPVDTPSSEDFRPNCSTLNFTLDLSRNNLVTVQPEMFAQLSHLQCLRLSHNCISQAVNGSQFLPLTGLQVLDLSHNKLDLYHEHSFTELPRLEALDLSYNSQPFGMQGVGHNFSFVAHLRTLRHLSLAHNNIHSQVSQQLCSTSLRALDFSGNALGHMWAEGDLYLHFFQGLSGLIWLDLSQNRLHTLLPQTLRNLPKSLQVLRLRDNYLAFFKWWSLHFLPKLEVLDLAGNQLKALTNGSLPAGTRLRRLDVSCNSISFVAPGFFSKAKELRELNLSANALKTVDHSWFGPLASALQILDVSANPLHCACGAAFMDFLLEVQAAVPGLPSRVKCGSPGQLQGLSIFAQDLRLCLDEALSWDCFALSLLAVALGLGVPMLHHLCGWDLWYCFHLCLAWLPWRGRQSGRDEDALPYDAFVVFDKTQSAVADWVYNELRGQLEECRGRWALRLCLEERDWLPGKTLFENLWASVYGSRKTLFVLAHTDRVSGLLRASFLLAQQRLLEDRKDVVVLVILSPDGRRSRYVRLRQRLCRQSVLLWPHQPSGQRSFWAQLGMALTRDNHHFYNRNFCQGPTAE
The assay can be described thus: TLR9 inhibition reporter assay (HEK-Blue cells, SEAP reporter, ODN2006 stimulation). The following applies: HEK-Blue cells overexpressing human TLR9, SEAP reporter, ODN2006 5 nM. An outline of the steps:
as §1
(In a reporter assay the amount or activity of a reporter protein is the signal.)

The target in a further assay is T3, human TLR7 (Homo sapiens, UniProt Q9NYK1).
T3 construct: host or cells: HEK-Blue cells
T3 sequence (Q9NYK1 27-1049): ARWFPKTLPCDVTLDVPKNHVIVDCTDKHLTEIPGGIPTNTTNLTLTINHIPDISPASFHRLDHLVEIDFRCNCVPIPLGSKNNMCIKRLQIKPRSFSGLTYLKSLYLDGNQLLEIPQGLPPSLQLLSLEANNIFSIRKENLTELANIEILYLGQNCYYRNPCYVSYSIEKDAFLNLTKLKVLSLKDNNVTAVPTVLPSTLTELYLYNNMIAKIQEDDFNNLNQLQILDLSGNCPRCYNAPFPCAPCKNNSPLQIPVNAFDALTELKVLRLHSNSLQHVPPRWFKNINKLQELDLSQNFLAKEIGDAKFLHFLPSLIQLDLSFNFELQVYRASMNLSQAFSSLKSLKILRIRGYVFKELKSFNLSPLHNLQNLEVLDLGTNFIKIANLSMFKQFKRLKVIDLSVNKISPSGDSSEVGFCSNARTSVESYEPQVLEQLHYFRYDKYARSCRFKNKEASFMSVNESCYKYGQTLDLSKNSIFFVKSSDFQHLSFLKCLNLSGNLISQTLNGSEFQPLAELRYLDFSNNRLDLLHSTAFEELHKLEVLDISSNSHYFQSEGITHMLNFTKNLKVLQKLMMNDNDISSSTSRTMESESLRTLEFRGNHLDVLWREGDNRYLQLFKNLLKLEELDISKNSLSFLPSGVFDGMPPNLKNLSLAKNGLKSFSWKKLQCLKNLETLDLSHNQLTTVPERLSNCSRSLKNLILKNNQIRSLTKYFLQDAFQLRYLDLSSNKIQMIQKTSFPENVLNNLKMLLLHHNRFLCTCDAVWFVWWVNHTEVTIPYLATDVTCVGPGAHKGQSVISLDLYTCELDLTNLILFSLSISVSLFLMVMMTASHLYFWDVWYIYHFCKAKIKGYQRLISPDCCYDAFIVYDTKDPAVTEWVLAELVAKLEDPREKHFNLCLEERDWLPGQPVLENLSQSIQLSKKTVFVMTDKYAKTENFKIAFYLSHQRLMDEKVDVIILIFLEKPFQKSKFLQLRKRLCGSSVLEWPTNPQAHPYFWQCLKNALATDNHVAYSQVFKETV
The assay can be described thus: TLR7 inhibition reporter assay (HEK-Blue cells, SEAP reporter, gardiquimod stimulation). Conditions: HEK-Blue cells overexpressing human TLR7, SEAP reporter, gardiquimod 7.5 μM. The gist of the method:
as §1

pIC50: −log10 of the molar value.

In the case of `Cc1cc(-c2[nH]c3ccc(C4CCC(N(C)C(=O)CN(C)C)CC4)cc3c2C(C)C)cn2ncnc12` (stereo not drawn) [Example 149], the negative-log IC50 (pIC50) – broadly, −log10 of the IC50, conventionally taken in molar units – at human TLR8 was 8.34; against human TLR9, 5.64; at human TLR7, 9.37.
On the same counts, the results for `Cc1cc(-c2[nH]c3ccc(C4CN(C)C(C)(C)CO4)cc3c2C(C)C)cn2ncnc12` (single isomer, unassigned) [Example 375, 2-(3-isopropyl-2-(8-methyl-[1,2,4]triazolo[1,5-a]pyridin-6-yl)-1H-indol-5-yl)-4,5,5-trimethylmorpholine] are 8.33, 5.69 and 9.00.
In the same order, the values of `COc1cc(-c2[nH]c3ccc(C4CCC(NCC(N)=O)CC4)cc3c2C(C)C)cn2ncnc12` (stereo not drawn) [Example 109] are 8.39, 5.80 and 9.08.
In the same order, the values of `Cc1cc(-c2[nH]c3ccc(C4CCN(C(=O)CN(C)C)C4)cc3c2C(C)C)cc(C)n1` (stereo not drawn) [Example 591] are 8.06, 6.00 and 8.10.
As to `COc1cc(-c2[nH]c3ccc(C4CN(C(=O)CNC5(C)COC5)CCO4)cc3c2C(C)C)cn2ncnc12` (stereo not drawn) [Example 361], the pIC50 is 8.60 at human TLR8, 5.27 on human TLR9 and 9.04 against human TLR7.
Consider `CC(C)c1c(-c2ccnc3[nH]ncc23)[nH]c2ccc(CN3CCCCC3)cc12` [Example 443], for which the pIC50 on human TLR8 is 6.80; on human TLR9 it was 5.55; against human TLR7, 6.55.
In the same order, the values of `CN[C@H](C)C(=O)N1CCCC(c2ccc3[nH]c(-c4cc(C)nc(C)c4)c(C(C)C)c3c2)C1` (stereo partly drawn) [Example 217] are 7.29, 6.16 and 8.30.
In the same order, the values of `Cc1c(-c2[nH]c3ccc(C4CN(CC(C)C)C4)cc3c2C(C)C)cn2cnnc2c1C` [Example 549] are 8.03, 5.66 and 8.22.
`COc1cc(-c2[nH]c3ccc(C4CCC(N5CC(F)(F)C5)CC4)cc3c2C(C)C)cn2ncnc12` (stereo not drawn) [Example 18]: the pIC50 is 7.42 against human TLR8, 4.47 against human TLR9 and 8.30 against human TLR7.
In the same order, the values of `COc1cc(-c2[nH]c3ccc(C4CCC(N5CC(O)C5)CC4)cc3c2C(C)C)cn2ncnc12` (single isomer, unassigned) [Example 22] are 8.41, 5.92 and 9.07.
Turning to `Cc1c(-c2[nH]c3ccc(C4CCCN(C(=O)CN(C)C)C4)cc3c2C(C)C)cn2ncnc2c1C` (stereo not drawn) [Example 193], the values for the pIC50 against human TLR8, at human TLR9 and on human TLR7 were 8.54, 5.19 and 9.00, respectively.
In the same order, the values of `COc1cc(-c2[nH]c3ccc(C4CCCN(C5COC5)C4)cc3c2C(C)C)cn2ncnc12` (stereo not drawn) [Example 237] are 7.42, 4.67 and 7.82.
In the same order, the values of `Cc1cc(-c2[nH]c3ccc(C4CNCCO4)cc3c2C(C)C)cn2ncnc12` (stereo not drawn) [Example 281, 2-(3-isopropyl-2-(8-methyl-[1,2,4]triazolo[1,5-a]pyridin-6-yl)-1H-indol-5-yl)morpholine] are 8.96, 5.40 and 9.42.
On the same counts, the results for `COc1cc(-c2[nH]c3ccc(C4CCC(N(C)C(C)C)CC4)cc3c2C(C)C)cn2ncnc12` (single isomer, unassigned) [Example 6, N-isopropyl-4-(3-isopropyl-2-(8-methoxy-[1,2,4]triazolo[1,5-a]pyridin-6-yl)-1H-indol-5-yl)-N-methylcyclohexanamine] are 9.00, 5.92 and 9.48.
Consider `CNCC(=O)N1CCOC(c2ccc3[nH]c(-c4cn5ncnc5c(C)c4C)c(C(C)C)c3c2)C1` (stereo not drawn) [Example 341], for which the pIC50 was 8.30 at human TLR8, 5.22 at human TLR9 and 8.70 at human TLR7.
On the same counts, the results for `Cc1cc(-c2[nH]c3ccc(C4CCC(C(=O)N5CCOCC5)CC4)cc3c2C(C)C)cn2ncnc12` (stereo not drawn) [Example 161] are 7.23, 5.32 and 8.52.
`Cc1cc(-c2[nH]c3ccc(CC4CCCN4)cc3c2C(C)C)cn2ncnc12` (stereo not drawn) [Example 398, 2-{8-methyl-[1,2,4]triazolo[1,5-a]pyridin-6-yl}-3-(propan-2-yl)-5-[(pyrrolidin-2-yl)methyl]-1H-indole]: the pIC50 is 8.46 against human TLR8, 5.80 on human TLR9 and 9.00 on human TLR7.
On the same counts, the results for `Cc1c(-c2[nH]c3ccc(C4CCC(NCC(=O)N(C)C)CC4)cc3c2C(C)C)cn2cnnc2c1C` (stereo not drawn) [Example 518] are 7.80, 5.88 and 8.70.

The values above are taken from US11878975B2, “Substituted indole compounds useful as TLR inhibitors” (BRISTOL-MYERS SQUIBB COMPANY, priority 2017, dated 2024).
